Holding throughout (type): cell-based, human
Assay [1] deals with peripheral blood mononuclear cells (PBMC). As to the kind of experiment: IFN-gamma ELISPOT secretion assay on PBMC (Example 1).
Assay [2] deals with T2-cells loaded with peptide. As to the kind of experiment: 51Cr-release assay for CTL-mediated cytotoxicity. The note with it: standard chromium release assay; FIG. 5. As for the experimental part: Conventional ^51Cr-release assays for CTL-mediated cytotoxicity were carried out as described elsewhere. Target cells were T2-cells (ATCC), HLA-A2^+ melanoma cell lines (FM3 and FM93)
In this experiment Arginase specific T cells were incubated 4 h with either Cr-labeled melanoma cell lines FM3 or FM93 at different effector:target ratios. Both cell lines express intracellular Arginase.

Assay [3] deals with PBMCs from healthy donors or cancer patients. As to the kind of experiment: IFNγ ELISPOT on PBMCs after one week peptide and IL-2 stimulation (Example 2). The following applies: selected PBMCs from cancer patients and healthy donors; one week stimulation with IL-2; FIG. 10B, 10C. As for the experimental part:
PBMCs from healthy donors or cancer patients were stimulated with 80 μg of arginase-derived peptides and 120 U/ml IL-2 (Peprotech, London, UK, cat. 200-02) for a week. 4-6×10^5 PBMCs were then placed in the bottom of ELISPOT plate (nitrocellulose bottomed 96-well plates by MultiScreen MAIP […]; Millipore, cat. MSIPN4W50) pre-coated with IFN-y capture Ab (Mabtech, cat. 3420-3-1000) and 1-10 μg of arginase derived peptides were added. PBMCs from each patient and donors were set up in duplicates or triplicates for peptide and control stimulations. Cells were incubated in ELISPOT plates in the presence of an antigen for 14-16 hours after which they are washed off and secondary biotinylated Ab (Mabtech, cat. 3420-6-1000) was added. After 2 h incubation unbound secondary antibody was washed off and streptavidin conjugated alkaline phosphatase (AP) (Mabtech, cat. 3310-10) was added for 1 h. Next, unbound conjugated enzyme is washed off and the assay is developed by adding BCIP/NBT substrate (Mabtech, cat. 3650-10). Developed ELISPOT plates were analysed on CTL ImmunoSpot S6 Ultimate-V analyzer using Immunospot software v5.1. Responses were calculated as the difference between average numbers of spots in wells stimulated with Arginase-1 peptides and control wells. We divided the entire arginase-1 protein sequence into overlapping 20-amino-acid-long peptides, generating a library of 31 peptides covering the whole sequence (SEQ ID NOs 18-48)). Each peptide in the library overlapped with the first 10 amino acids of the following peptide. Using this arginase peptide library and the IFNγ ELISPOT assay, we next screened PBMCs from melanoma patients and healthy donors for spontaneous responses (FIGS. 9A and 9B). The PBMCs were stimulated for one week with a pool of 3-4 adjacent 20-mer arginase library peptides and low-dose IL-2 (120 U/mL). They were then set up for an IFNγ ELISPOT assay to screen for responses against each 20-mer peptide separately. […] Among these overlapping peptides, […]-200), and Arg(191-210) spanned a 50-amino-acid-long region that was deemed a hot-spot region since nearly all patients harbored a response against one or more of these peptides (FIG. 9A). The selected eight peptides were further used to screen for spontaneous immune responses against arginase-1 in PBMCs from eight healthy donors using IFNγ ELISPOT. […] Since we most frequently observed responses against arginase-1 peptides from the hot-spot region, we next analyzed whether longer peptides covering the same sequence could be used instead of four 20-mers. […] We then divided the arginase-1 hot-spot region into two 30-mer peptides that overlapped by 10 amino acids (peptides labelled by reference to start and end position): […]-190) and […]-210). These 30-mer peptides were used to check for responses in selected PBMCs from cancer patients and healthy donors, which had previously shown responses against the 20-mer hot-spot peptides. The PBMCs were stimulated for one week with either […]-190) or […]-210) in the presence of IL-2, and were then used in IFNγ ELISPOT.

Assay [4] concerns PBMCs from cancer patients. As to the kind of experiment: IFNγ ELISPOT with HLA Class I / Class II blocking. The following applies: anti-Class I W6/32 or anti-Class II Tü39; FIG. 11B. As for the experimental part:
PBMCs from healthy donors or cancer patients were stimulated with 80 μg of arginase-derived peptides and 120 U/ml IL-2 (Peprotech, London, UK, cat. 200-02) for a week. 4-6×10^5 PBMCs were then placed in the bottom of ELISPOT plate (nitrocellulose bottomed 96-well plates by MultiScreen MAIP N45; Millipore, cat. MSIPN4W50) pre-coated with IFN-y capture Ab (Mabtech, cat. 3420-3-1000) and 1-10 μg of arginase derived peptides were added. PBMCs from each patient and donors were set up in duplicates or triplicates for peptide and control stimulations. Cells were incubated in ELISPOT plates in the presence of an antigen for 14-16 hours after which they are washed off and secondary biotinylated Ab (Mabtech, cat. 3420-6-1000) was added. After 2 h incubation unbound secondary antibody was washed off and streptavidin conjugated alkaline phosphatase (AP) (Mabtech, cat. 3310-10) was added for 1 h. Next, unbound conjugated enzyme is washed off and the assay is developed by adding BCIP/NBT substrate (Mabtech, cat. 3650-10). Developed ELISPOT plates were analysed on CTL ImmunoSpot S6 Ultimate-V analyzer using Immunospot software v5.1. Responses were calculated as the difference between average numbers of spots in wells stimulated with Arginase-1 peptides and control wells. […]

Assay [5] has as its system PBMCs from two healthy donors and one cancer patient. As to the kind of experiment: Intracellular staining for IFNγ and TNFα release in PBMCs. As for the experimental part: Flow cytometry analysis was performed on a FACSCanto™ II (BD Biosciences, San Jose CA, USA). Intracellular staining of cell cultures was performed after the cells were stimulated with 20-mere peptides for 5 hours or 30-mere peptides for 8h (BD GolgiPlug™ cat. 555029, was added after the first hour). The cells were then stained for surface markers, then washed and permeabilized by using Fixation/Permeabilization and Permeabilization Buffer (eBioscience, cat. 00-5123-43), according to manufacturer's instructions. Antibodies used: IFNγ-APC (cat. 341117), TNFα-BV421 (cat. 562783), CD4-FITC (cat. 347413), CD8-PerCP (cat. 345774) (all from BD Biosciences). Dead cells were stained using FVS510 (564406, BD Biosciences) according to manufacturer's instructions.
To investigate which types of T cells reacted to the peptide epitopes in the hot-spot region, we performed intracellular staining for IFNγ and TNFα release in PBMCs from two healthy donors and one cancer patient, which had shown responses against the Arg(161-190) peptide in IFNγ ELISPOT.

In assay [6] the test system is arginase-specific CD4+ T-cell culture. As to the kind of experiment: Recognition by arginase-specific CD4+ T-cell culture (ArgShort-stimulated). As for the experimental part: PBMCs from healthy donors or cancer patients were stimulated with 80 μg of arginase-derived peptides and 120 U/ml IL-2 (Peprotech, London, UK, cat. 200-02) for a week. 4-6×10^5 PBMCs were then placed in the bottom of ELISPOT plate (nitrocellulose bottomed 96-well plates by MultiScreen MAIP N45; Millipore, cat. MSIPN4W50) pre-coated with IFN-y capture Ab (Mabtech, cat. 3420-3-1000) and 1-10 μg of arginase derived peptides were added. PBMCs from each patient and donors were set up in duplicates or triplicates for peptide and control stimulations. Cells were incubated in ELISPOT plates in the presence of an antigen for 14-16 hours after which they are washed off and secondary biotinylated Ab (Mabtech, cat. 3420-6-1000) was added. After 2 h incubation unbound secondary antibody was washed off and streptavidin conjugated alkaline phosphatase (AP) (Mabtech, cat. 3310-10) was added for 1 h. Next, unbound conjugated enzyme is washed off and the assay is developed by adding BCIP/NBT substrate (Mabtech, cat. 3650-10). Developed ELISPOT plates were analysed on CTL ImmunoSpot S6 Ultimate-V analyzer using Immunospot software v5.1. Responses were calculated as the difference between average numbers of spots in wells stimulated with Arginase-1 peptides and control wells.
Arginase-specific T cell culture were established by stimulation of cancer patient PBMC with irradiated ArgShort (SEQ ID NO 9) peptide-loaded autologous DC or PBMCs. The following day IL-7 and IL-12 (PeproTech, London, UK, cat. 200-07-10 and 200-12) were added. Stimulation of the cultures were carried out every 8 days with ArgShort peptide loaded irradiated autologous DC followed by ArgShort peptide-loaded irradiated autologous PBMC. The day after peptide stimulation IL-2 […]. After 5 stimulations arginase-specific T cells were enriched using TNF-α cell enrichment kit (MiltenyiBiotec, cat. 130-091-269).
Flow cytometry analysis was performed on a FACSCanto™ II (BD Biosciences, San Jose CA, USA). […]

As to “IVYIGLRDV (Peptide fragment of human Arginase 1) [Arg8, positions 174-182 of human Arginase 1]”, the “specific T-cell responses against Arg-derived peptide” value in assay [1] (IFN-gamma ELISPOT, PBMC from six melanoma patients, FIG. 1) is recorded as “Strong responses”. Besides, the “Immune responses against Arg 8 peptide” value in assay [1] (PBMC from 6 cancer patients, specific cells/3×10e5 cells, FIG. 2) is “Very strong responses were frequently detected”. The “killing of peptide-loaded target cells by CD8 positive culture” value in assay [2] is reported as “can kill target cells loaded with Arg8”.

In the case of “GFSWVTPCISAKDIVYIGLRDVDPGEHYIL (Peptide fragment of human Arginase 1) [Arg(161-190), 30-mer, positions 161-190 of human Arginase 1]”, the “IFNγ ELISPOT responses against longer hot-spot peptides” value in assay [3] is listed as “high responses”. Further, in assay [4], the “IFNγ release in response to peptide on blocking HLA Class I or Class II” value is “partially blocked the IFNγ release”. Besides, the “TNFα release from CD4+ T cells” value in assay [5] (8-hour incubation with peptide, FIG. 11A) is “detected TNFα release from CD4+ T cells”. Moreover, the “response from CD8+ T cells” value in assay [5] (some samples, data not shown) is given as “minor response”. For the same sequence, the “TNFα release from CD4+ T cells, intracellular staining” value in assay [6] (8 hours of peptide stimulation, FIG. 11C right) is “TNFα release from CD4+ T cells”. Also, the “recognition by T-cell culture specific against the minimal arginase epitope” value in assay [6] (IFNγ ELISPOT and intracellular staining, FIG. 11C) was “recognized”.

Source of the values: US11981944B2, “Immunogenic arginase peptides” (IO Biotech ApS, priority 2016, dated 2024).
